In patent US5049551A, “5-fluorouracil, 2'-deoxy-5-fluorouridine and 1-carbomoyl-5-fluorouracil compounds” (UBE Industries, Ltd., priority 1989, dated 1991):

Assays:
[1] = Acute toxicity, oral, Pharmacological test example 3; conditions: in vivo, 7 week-old BDF2 female mouse, 21 days after administration, read-out: ID50 (LD50 from mortality)
Experimental: The compounds of the present invention obtained in Examples 4 and 7 were orally administered to 7 week-old BDF2 female mouse (10 mice per group). After 21 days from the administration, mortality of the mice was judged and LD50 value was evaluated from mortality according to the Richfield-Wilcokson method.

KB cell [2] = assay: Cell proliferation inhibition, KB cells, Pharmacological test example 2; assay type: cell-based; conditions: Homo sapiens, 5×10^3 planted, compound added after 24 hours, 5 days culture, read-out: IC50 (50% cell proliferation inhibiting concentration)
Experimental: To a microwell having 9 holes were planted KB cell with 5×10^3, respectively, and after 24 hours, the compound of the present invention obtained in Example 7 and 5-fluorouracil were added. After cultivating for 5 days, the number of cells were measured and from a cell proliferation inhibiting ratio-concentration curve, 50% cell proliferation inhibiting concentration (IC50 value) at which the inhibiting ratio becomes 50% was evaluated.

KB cell [3] = assay: Cell proliferation inhibition, KB cells, Pharmacological test example 1; assay type: cell-based; conditions: Homo sapiens, 2×10^4 planted, compound added after 12 hours, 5 days culture, read-out: IC50 (50% cell proliferation inhibiting concentration)
[4] = background; cited from earlier work

Structure (SMILES)	LD50 at 504 h [1]	IC50 (KB cell [3])	antitumor effects compared with 5-fluorouracil [4]	also measured
O=c1[nH]cc(F)c(=O)[nH]1 [5-Fluorouracil, 5-fluorouracil]	928 mg/kg	17.7 µM	–	IC50 (KB cell [2]): 0.75 µM; antitumor activity [4]: insufficient; toxicity [4]: potent toxicity
CCCCCCNC(=O)n1cc(F)c(=O)[nH]c1=O [Carmofur, 1-n-hexylcarbamoyl-5-fluorouracil]	–	–	inferior to that of 5-fluorouracil	–
C[C@H]1O[C@@H](n2cc(F)c(=O)[nH]c2=O)[C@H](O)[C@@H]1O [Doxifluridine, 5'-deoxy-5-fluorouridine]	–	–	inferior to that of 5-fluorouracil	–
CCCC(CCC)C(=O)NCC(=O)OC[C@H]1O[C@@H](n2cc(F)c(=O)[nH]c2=O)[C@H](OC(=O)CNC(=O)C(CCC)CCC)[C@@H]1OC(=O)CNC(=O)C(CCC)CCC [Example 1, 2',3',5'-tris-O-[N-(2-n-propyl-n-pentanoyl)-glycyl]-5-fluorouridine]	≥ 5000 mg/kg	2 µM	–	–
CCCC(CCC)C(=O)NCC(=O)OC[C@H]1O[C@@H](n2cc(F)c(=O)[nH]c2=O)[C@H](O)[C@@H]1OC(=O)CNC(=O)C(CCC)CCC [Example 4, 3',5'-bis-O-[N-(2n-propyl-n-pentanoyl)-glycyl]-5-fluorouridine]	≥ 3000 mg/kg	1.8 µM	–	–
CCCC(CCC)C(=O)NCC(=O)NCCCCCCNC(=O)n1cc(F)c(=O)[nH]c1=O [Example 7, 1-[6-[N-(2-n-propyl-n-pentanoyl)glycyl]amino-n-hexylcarbamoyl]-5-fluorouracil]	≥ 1000 mg/kg	–	–	IC50 (KB cell [2]): 0.66 µM
O=c1[nH]c(=O)n(C2CCCO2)cc1F (centres unmarked) [Tegafur, 1-(2-tetrahydrofulyl)-5-fluorouracil]	–	–	inferior to that of 5-fluorouracil	–
